Where a name gives a salt, the structure may show the parent alone.
How the values were obtained:
Galectin-2 = target: T1, Galectin-2 (Homo sapiens, UniProt P05162); assay: Galectin-2 binding to asialofetuin ELISA; settings: Gal-2 5 μg/ml, ASF 20 μg/ml
T1 construct: made in house; host or cells: E. coli
T1 sequence (P05162 1-132): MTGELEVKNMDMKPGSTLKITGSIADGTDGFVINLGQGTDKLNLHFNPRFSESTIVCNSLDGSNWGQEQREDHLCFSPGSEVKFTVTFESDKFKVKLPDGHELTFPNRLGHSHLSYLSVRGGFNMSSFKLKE
Method: Effect of the inhibitors on galectin binding to its ligand asialo fetuin (ASF) was measured by galectin ELISA. Nanty-six well plates were coated overnight with 20 μg/ml ASF in coating buffer (15 mM Na2CO3 17 mM NaHCO3 pH 9.6.). The wells were washed twice with PBS and incubated with blocking buffer (1% BSA in PBS) for 1 hr. The supernatants were removed and replaced with 5 μg/ml recombinant human galectin without or with different concentrations of the compound inhibitors or lactose in blocking buffer for 1 hr at room temperature. The wells were washed and incubated with 1 μg/ml anti-galectin antibody for 2 hr. Following addition of HRP-conjugated secondary antibody for 1 hr, FAST OPD development solution was added for 15-20 minutes. The reaction was terminated by addition of 4M sulphuric acid. The plates were read at 492 nm (reference wavelength 595 nm) by a microplate reader.

[1] = tested on: human colon cancer SW620 cells; assay: SW620 cell invasion through HUVECs (transwell); assay type: cell-based; settings: compound 20 μM, transwells
Method: HUVECs were plated at a density of 1.5×10^4 cells in 8 μm pore transwells in 24-well plate and cultured for three days to allow formation of tight monolayer. The integrity of HUVEC monolayer was confirmed by measuring TEER and only monolayers with TEER reading>800 Ω/cm^2 were used for the invasion assay. AGA19+ or SW620 cell suspension (5×10^5 cells/ml in DMEM) was introduced with 5 μl/ml fluorescent cell labelling solution DiL for 30 min at 37° C. The fluorescence labelled cells were washed twice with PBS and resuspended into 1×10^5 cells/ml in DMEM. […] The cells at the upper side of the trans-well inserts were gently removed with cotton swabs. The cells migrated to the bottom side of the transwells were fixed with 2% paraformaldehyde for 10 min. The trans-well membrane was removed and placed on glass slides. After addition of fluorescence mounting medium containing DAPI, the fluorescence labelled cells on the membrane were quantified under a fluorescence microscope.

[2] = tested on: human umbilical vein endothelial cells (HUVECs); assay: Vascular cell tubule formation (angiogenesis); assay type: cell-based; settings: Galectin-3 2 μg/ml, compound 10 μM
Method: Matrigel matrix (50 μl) was added to 96-well plates for 60 min at 37° C. to allow gel formation. HUVEC cells (1×10^5 cells/ml in 1:1 EGM/EBM2 media) was introduced to the plates without or with galectin-3 (2 μg/ml) or different concentrations of compound inhibitors for 24 hr at 37° C. Endothelial cell tube formation was examined with Laser Microscope. The total number of branching points and the sum of the lengths of tubes were measured.

full-length galectin-3 = target: T2, full-length galectin-3 (Homo sapiens, UniProt P17931); assay: Tryptophan Fluorescence Spectroscopy (TFS) binding affinity, full-length Galectin-3
T2 construct: made in house; host or cells: E. coli
Method: The binding affinity of the inhibitors to galectin-3 was determined by Intrinsic Tryptophan Fluorescence Spectroscopy (TFS) exactly as we described recently [Sindrewicz, P., et al., Intrinsic tryptophan fluorescence spectroscopy reliably determines galectin-ligand interactions. Sci Rep, 2019. 9(1): p. 11851]. The Galectin-3 concentration used was 10 μM and the inhibitor titration concentrations were from 0 to 224 μM. DMSO/control buffer (PBS with 2 mM EDTA) titrations were performed and used for background subtraction.

[3] = tested on: THP-1 differentiated macrophages; assay: Galectin-3-induced TNFα secretion from macrophages (ELISA); assay type: cell-based; settings: Galectin-3 10 μg/ml, various concentrations
Method: Effect of the compound inhibitors on secretion of pro-inflammatory cytokines from macrophages were assessed in THP-1 monocyte differentiated macrophages. THP-1 cells were induced to differentiation into macrophages by incubation with 10 ng/ml PMA for 48 h at 37° C. The culture medium was then replaced with fresh medium without or with 10 μg/ml galectin-3 and various concentrations of the compound inhibitors for 24 h at 37° C. The culture medium was collected and the concentrations of TNFα and IL-1β in the culture medium were determined by TNFα and IL-1β ELISA.

[4] = tested on: human pancreatic cancer PANC1 cells; assay: Pancreatic cancer cell adhesion to basement matrix; assay type: cell-based
Method: Nanty-six well plates were coated with 50 μl Matrigel (1:30 diluted in PBS) at 37° C. for 1 hour.
Cancer cells, pre-labelled with fluorescent die DiI at 37° C. for 20 minutes, were washed twice with PBS and resuspended into 3×10^4 cells/ml in serum-free medium. The matrix-coated 96-well plates were washed twice with PBS before introduction of 100μ cell suspension with different concentrations of the inhibitors or PBS/DMSO (control) for 1 hour at 37° C. The plates were washed twice with PBS before three randomly selected Field of Views (FOVs) were recorded by fluorescence microscope and number of adhesion cells were quantified by Image J.
MDAMB-231 or PANC-1 cells were seeded into 6-well plate (2×10^5 cells) and cultured at 37° C. for 24 hour. Galectin-3 CRISPR Cas9 Knockout plasmid (2 μg) and galectin-3 HDR plasmid (2 μg) was mixed with Plasmid Transfection Medium (21 μl) for 5 minutes before addition to a mixture of lipofectamine STEM Transfection Reagent (STEM00001) (1 μl) and Plasmid Transfection Medium (25 μl) for 10 minutes at room temperature. The cells in the 6-well plates were washed and introduced with the Plasmid DNA/Lipofectamine STEM Transfection Reagent complex at 37° C. for 24 hour. The culture medium was replaced with fresh antibiotics-free medium for further 24 hour before introduction of 10 μg/mL puromycin-containing medium every three days. Successful co-transfection of the CRISPR/Cas9 KO Plasmid and HDR Plasmid was confirmed by expression of red fluorescence protein of the cells. Galectin-3 knockout in the cells was further confirmed by immunoblotting.

T2 sequence (P17931 whole entry): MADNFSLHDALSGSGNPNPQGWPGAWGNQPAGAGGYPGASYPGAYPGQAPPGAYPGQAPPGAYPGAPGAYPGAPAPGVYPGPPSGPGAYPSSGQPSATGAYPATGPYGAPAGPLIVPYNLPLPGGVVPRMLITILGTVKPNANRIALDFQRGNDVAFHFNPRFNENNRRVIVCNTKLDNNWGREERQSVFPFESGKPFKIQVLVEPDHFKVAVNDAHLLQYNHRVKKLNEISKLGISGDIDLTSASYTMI

NC1CCN(c2nc3c(cc2F)c(=O)c(C(=O)O)cn3-c2ccc(F)cc2F)C1 (stereo not drawn) [Formula X, Tosufloxacin tosylate]
Effect on Galectin-2 binding to asialofetuin (Galectin-2): does not affect binding
Inhibition of galectin-3-mediated invasion of SW620 cells through HUVECs [1]: significant inhibition
Inhibition of galectin-3-induced tubule numbers [2]: significant inhibition
Inhibition of galectin-3-induced vascular tubule length [2]: significant inhibition
Kd (full-length galectin-3): 5 to 7 µM
Inhibition of galectin-3-induced TNFα secretion [3]: dose-dependent inhibition
Effect on adhesion of galectin-3 knockout (Gal3KO) PANC1 cells ([4]; CRISPR/Cas9 Gal3KO cells): lost their inhibitory effect
Effect on adhesion of non-transfected (con) PANC1 cells ([4]; control cells): significant reduction
Inhibition of PANC1 cell adhesion to matrix ([4]; different concentrations): dose-dependent inhibition

Reference: patent US20260232644A1, “Compositions Comprising an Inhibitor of Galectin-3” (University of Liverpool, priority 2023, published 2026)
